According to patent publication US12459951B2, “Compounds that interact with RAS superfamily proteins for treatment of cancers, inflammatory diseases, rasopathies, and fibrotic disease” (SHY Therapeutics, LLC, priority 2022, dated 2025):

What was measured:
Akt phosphorylation = test: Akt Phosphorylation Assay (western blot), Panc-1; type: cell-based, human; details: at 10 μM, * = activation
How it was run: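 Panc-1 (KRas G12D) cells were treated with compound at 10 μM final (0.3% DMSO) for 6 h at 37 °C, or with serial dilutions for IC50. Cells were either serum-starved overnight in 0.5% FBS and then stimulated with 1.5 ng/ml EGF for 15 min, or kept in 10% FBS without stimulation. Akt Ser473 phosphorylation in lysates was read by western blot.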

KRas G12D mutant = test: Ras GTP Binding Domain Inhibition Assay (Ras Superfamily Assay); details: 20 μM compound; for KRas G12D mutant + SOS: % inh.: with SOS; for KRas G12D mutant: % inh.: without SOS
How it was run: (§1)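 Ni-plate capture of His-tagged protein (10-30 μg/mL, o/n 4° C); cpd 20 μM or dilution series, 1% DMSO, 3 h RT ± Sos 556-1049 last h; 100 nM Cy-labelled GTP 45 min RT; 3× wash; fluorescence read.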

KRas wild type = test: as above; details: 20 μM compound; for KRas wild type + SOS: % inh.: with SOS; for KRas wild type: % inh.: without SOS
How it was run: as §1

Rac-1 = molecular target: T1, Rac-1 (Homo sapiens, UniProt P63000); test: as above; details: read-out: Rac-1: % inh.
T1 construct: made in house
How it was run: as §1

Compound | KRas G12D mutant + SOS: % inh. (KRas G12D mutant) | KRas G12D mutant: % inh. (KRas G12D mutant) | KRas wild type + SOS: % inh. (KRas wild type) | KRas wild type: % inh. (KRas wild type) | inhibition at 20 µM (Rac-1) [%] | % inh of Akt phosphorylation in Panc-1 (Akt phosphorylation)
COc1cccc(-c2cn3nc(-c4nccn4C)nc(O)c3c2C)c1Cl [Compound 15, 6-(2-Chloro-3-methoxyphenyl)-5-methyl-2-(1-methyl-1H-imidazol-2-yl)pyrrolo[2,1-f][1,2,4]triazin-4-ol] | 0 (0 = 0% inhibition) | A (A = 1-25% inhibition) | A (A = 1-25% inhibition) | A (A = 1-25% inhibition) | 0 | 0 (0% inhibition)
COCCNc1nc(-c2nccn2C)nn2cc(-c3cccc(OC)c3Cl)c(C)c12 [Compound 16, 6-(2-Chloro-3-methoxyphenyl)-N-(2-methoxyethyl)-5-methyl-2-(1-methyl-1H-imidazol-2-yl)pyrrolo[2,1-f][1,2,4]triazin-4-amine] | 0 (0 = 0% inhibition) | A (A = 1-25% inhibition) | A (A = 1-25% inhibition) | 0 (0 = 0% inhibition) | 0 | 0 (0% inhibition)
CO[C@H]1C[C@H](Nc2nc(-c3nccn3C)nn3cc(-c4cccnc4)c(-c4cccnc4)c23)C1 [Compound 171, N-((1r,3r)-3-Methoxycyclobutyl)-2-(1-methyl-1H-imidazol-2-yl)-5,6-di(pyridin-3-yl)pyrrolo[2,1-f][1,2,4]triazin-4-amine] | A (A = 1-25% inhibition) | A (A = 1-25% inhibition) | B (B = 26-49% inhibition) | A (A = 1-25% inhibition) | 1 to 25 | B (26-49% inhibition)
Cc1c(-c2ccn(C)n2)cn2nc(-c3nccn3C)nc(O)c12 [Compound 172, 5-Methyl-2-(1-methyl-1H-imidazol-2-yl)-6-(1-methyl-1H-pyrazol-3-yl)pyrrolo[2,1-f][1,2,4]triazin-4-ol] | B (B = 26-49% inhibition) | B (B = 26-49% inhibition) | B (B = 26-49% inhibition) | B (B = 26-49% inhibition) | 26 to 49 | B* (26-49% activation)

More lines, main results first:

KRas G12D mutant + SOS: % inh. (KRas G12D mutant) | KRas G12D mutant: % inh. (KRas G12D mutant) | KRas wild type + SOS: % inh. (KRas wild type) | KRas wild type: % inh. (KRas wild type) | inhibition at 20 µM (Rac-1) [%] | Compound | % inh of Akt phosphorylation in Panc-1 (Akt phosphorylation)
0 (0 = 0% inhibition) | A (A = 1-25% inhibition) | 0 (0 = 0% inhibition) | A (A = 1-25% inhibition) | 0 | COc1cc(Nc2nc(-c3ccccn3)nn3cc(-c4ccn(C(C)C)n4)c(C)c23)ncn1 [Compound 13, 6-(1-Isopropyl-1H-pyrazol-3-yl)-N-(6-methoxypyrimidin-4-yl)-5-methyl-2-(pyridin-2-yl)pyrrolo[2,1-f][1,2,4]triazin-4-amine] | 0 (0% inhibition)
0 (0 = 0% inhibition) | A (A = 1-25% inhibition) | A (A = 1-25% inhibition) | 0 (0 = 0% inhibition) | 0 | COc1cccc(Nc2nc(-c3ccccn3)nn3cc(-c4ccn(C(C)C)n4)c(C)c23)n1 [Compound 14, 6-(1-Isopropyl-1H-pyrazol-3-yl)-N-(6-methoxypyridin-2-yl)-5-methyl-2-(pyridin-2-yl)pyrrolo[2,1-f][1,2,4]triazin-4-amine] | 0 (0% inhibition)
D (D = 76-100% inhibition) | D (D = 76-100% inhibition) | D (D = 76-100% inhibition) | D (D = 76-100% inhibition) | 76 to 100 | COc1cc(Nc2nc(-c3nccn3C)nn3cc(-c4cccnc4)c(-c4cccnc4)c23)ncn1 [Compound 170, N-(6-Methoxypyrimidin-4-yl)-2-(1-methyl-1H-imidazol-2-yl)-5,6-di(pyridin-3-yl)pyrrolo[2,1-f][1,2,4]triazin-4-amine] | C* (46-84% activation)
